These results are taken from ChEMBL document CHEMBL5236588 (J Med Chem, 2022).

Residues, ends and D or L forms follow the SMILES beside them.

The species named for one assay is Homo sapiens. The assay is described as follows: Potency index, ratio of M8 Ki to test compound Ki for inhibition of FXIIa (unknown origin).
Assay [1] is described as follows: Inhibition of FXIIa (unknown origin) using Ac-QRFR-pNA as substrate measured at 30 sec interval by microplate reader assay. Also noted: species or system Homo sapiens.
Assay [2] is described as follows: Inhibition of human FXa using Z-Pyr-GR-MCA as substrate.
The nature of assay [3]: Inhibition of human cationic trypsin using Boc-VPR-MCA as susbtrate.
A further assay deals with Plasminogen (Homo sapiens, UniProt P00747). As to the kind of experiment: Inhibition of human plasmin using Ac-RM(O2)YR-pNA as substrate.
Chain of Plasminogen (P00747 97-580 limits assumed): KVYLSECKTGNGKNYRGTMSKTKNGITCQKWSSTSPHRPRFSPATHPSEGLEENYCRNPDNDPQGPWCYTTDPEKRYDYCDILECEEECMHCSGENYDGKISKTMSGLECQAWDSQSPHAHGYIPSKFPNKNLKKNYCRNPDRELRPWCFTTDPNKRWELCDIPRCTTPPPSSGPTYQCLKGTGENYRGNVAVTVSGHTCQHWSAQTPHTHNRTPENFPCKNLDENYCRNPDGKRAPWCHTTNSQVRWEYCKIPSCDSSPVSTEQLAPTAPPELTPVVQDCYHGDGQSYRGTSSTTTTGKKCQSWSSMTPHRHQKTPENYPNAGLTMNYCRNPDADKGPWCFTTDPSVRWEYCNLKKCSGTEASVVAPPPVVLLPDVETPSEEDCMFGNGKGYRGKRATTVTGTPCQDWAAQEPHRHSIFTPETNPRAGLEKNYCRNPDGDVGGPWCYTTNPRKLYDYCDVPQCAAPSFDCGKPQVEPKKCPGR
Chain of Plasminogen (P00747 581-810 limits assumed): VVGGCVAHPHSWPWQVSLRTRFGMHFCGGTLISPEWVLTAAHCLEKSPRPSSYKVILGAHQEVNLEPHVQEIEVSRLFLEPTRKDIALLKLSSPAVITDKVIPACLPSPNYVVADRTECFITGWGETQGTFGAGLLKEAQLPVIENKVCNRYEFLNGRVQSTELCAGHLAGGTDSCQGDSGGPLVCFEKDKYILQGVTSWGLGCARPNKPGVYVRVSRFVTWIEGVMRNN

In general, Ki refers to the equilibrium dissociation constant of an inhibitor or competing ligand from its target. A low value points to tighter binding. For `CC[C@H](C)[C@@H]1NC(=O)[C@H](CCCNC(=N)N)NC(=O)[C@H](Cc2ccccc2)NC(=O)[C@@H]2CSSC[C@H]3NC(=O)[C@H](C)NC(=O)CNC(=O)[C@@H]4CCCN4C(=O)[C@@H]4CSSC[C@H](NC(=O)[C@H](Cc5ccc(O)cc5)NC(=O)CNC(=O)[C@H](CC(N)=O)NC(=O)CNC(=O)[C@H](CCCNC(=N)N)NC(=O)[C@H](CSSC[C@H](NC(=O)[C@H](CCCCN)NC(=O)[C@H](CCCCN)NC(=O)[C@H](CC(C)C)NC1=O)C(=O)N[C@@H](CCCNC(=N)N)C(=O)N[C@@H](CCCNC(=N)N)C(=O)N[C@@H](CC(=O)O)C(=O)N[C@@H](CO)C(=O)N[C@@H](CC(=O)O)C(=O)N4)NC(=O)[C@H]([C@@H](C)CC)NC3=O)C(=O)NCC(=O)N[C@@H](CO)C(=O)NCC(=O)N[C@@H](CCC(N)=O)C(=O)N2`, the Ratio Ki in the assay listed under Homo sapiens was found to be 1.2. Besides, in assay [1], the Ki amounted to 156 nM.

On to `CC[C@H](C)[C@@H]1NC(=O)[C@@H]2CSSC[C@H](NC(=O)[C@H](CCC(N)=O)NC(=O)CNC(=O)CN)C(=O)N[C@@H](Cc3ccccc3)C(=O)N[C@@H](CCCNC(=N)N)C(=O)N[C@@H]([C@@H](C)CC)C(=O)N[C@@H](CC(C)C)C(=O)N[C@@H](CCCCN)C(=O)N[C@@H](CCCCN)C(=O)N[C@@H]3CSSC[C@H](NC1=O)C(=O)N[C@@H](CCCNC(=N)N)C(=O)NCC(=O)N[C@@H](CC(N)=O)C(=O)NCC(=O)N[C@@H](Cc1ccc(O)cc1)C(=O)N[C@H](C(=O)NCC(=O)N[C@@H](C)C(=O)O)CSSC[C@H](NC(=O)[C@H](CC(=O)O)NC(=O)[C@H](CO)NC(=O)[C@H](CC(=O)O)NC(=O)[C@H](CCCNC(=N)N)NC(=O)[C@H](CCCNC(=N)N)NC3=O)C(=O)N1CCC[C@H]1C(=O)NCC(=O)N[C@@H](C)C(=O)N2`, for which, in assay [1], the Ki came out at 157 nM.

Take `CC[C@H](C)[C@@H]1NC(=O)[C@@H]2CSSC[C@@H]3NC(=O)[C@H](CCC(N)=O)NC(=O)CNC(=O)CNC(=O)[C@H](CC(=O)O)NC(=O)[C@H](CO)NC(=O)CNC(=O)[C@@H]4CSSC[C@H](NC(=O)[C@H](CC(=O)O)NC(=O)[C@H](CO)NC(=O)[C@H](CC(=O)O)NC(=O)[C@H](CCCNC(=N)N)NC(=O)[C@H](CCCNC(=N)N)NC(=O)[C@H](CSSC[C@H](NC1=O)C(=O)N[C@@H](CCCNC(=N)N)C(=O)NCC(=O)N[C@@H](CC(N)=O)C(=O)NCC(=O)N[C@@H](Cc1ccc(O)cc1)C(=O)N4)NC(=O)[C@H](CCCCN)NC(=O)[C@H](CCCCN)NC(=O)[C@H](CC(C)C)NC(=O)[C@H]([C@@H](C)CC)NC(=O)[C@H](CCCNC(=N)N)NC(=O)[C@H](Cc1ccccc1)NC3=O)C(=O)N1CCC[C@H]1C(=O)NCC(=O)N[C@@H](C)C(=O)N2` (HELM PEPTIDE1{A.C.I.C.R.G.N.G.Y.C.G.S.D.G.G.Q.C.F.R.I.L.K.K.C.R.R.D.S.D.C.P.G}$PEPTIDE1,PEPTIDE1,2:R3-17:R3|PEPTIDE1,PEPTIDE1,4:R3-24:R3|PEPTIDE1,PEPTIDE1,10:R3-30:R3|PEPTIDE1,PEPTIDE1,1:R1-32:R2$$$V2.0): in the assay listed under Homo sapiens, the Ratio Ki came out at 2.1. In assay [1], this compound had a Ki of 92 nM.

Turning to `CC[C@H](C)[C@@H]1NC(=O)[C@@H]2CSSC[C@@H]3NC(=O)[C@H](CCC(N)=O)NC(=O)CNC(=O)CNC(=O)CNC(=O)[C@H](CO)NC(=O)CNC(=O)[C@@H]4CSSC[C@H](NC(=O)[C@H](CC(=O)O)NC(=O)[C@H](CO)NC(=O)[C@H](CC(=O)O)NC(=O)[C@H](CCCNC(=N)N)NC(=O)[C@H](CCCNC(=N)N)NC(=O)[C@H](CSSC[C@H](NC1=O)C(=O)N[C@@H](CCCNC(=N)N)C(=O)NCC(=O)N[C@@H](CC(N)=O)C(=O)NCC(=O)N[C@@H](Cc1ccc(O)cc1)C(=O)N4)NC(=O)[C@H](CCCCN)NC(=O)[C@H](CCCCN)NC(=O)[C@H](CC(C)C)NC(=O)[C@H]([C@@H](C)CC)NC(=O)[C@H](CCCNC(=N)N)NC(=O)[C@H](Cc1ccccc1)NC3=O)C(=O)N1CCC[C@H]1C(=O)NCC(=O)N[C@@H](C)C(=O)N2` (HELM PEPTIDE1{A.C.I.C.R.G.N.G.Y.C.G.S.G.G.G.Q.C.F.R.I.L.K.K.C.R.R.D.S.D.C.P.G}$PEPTIDE1,PEPTIDE1,2:R3-17:R3|PEPTIDE1,PEPTIDE1,4:R3-24:R3|PEPTIDE1,PEPTIDE1,10:R3-30:R3|PEPTIDE1,PEPTIDE1,1:R1-32:R2$$$V2.0), in the assay listed under Homo sapiens, the Ratio Ki came out at 2.6. The Ki in assay [1] was determined as 76 nM.

Consider `CC[C@H](C)[C@@H]1NC(=O)[C@@H]2CSSC[C@@H]3NC(=O)[C@H](CCC(N)=O)NC(=O)CNC(=O)CNC(=O)[C@H](CO)NC(=O)CNC(=O)[C@H](CO)NC(=O)CNC(=O)[C@@H]4CSSC[C@H](NC(=O)[C@H](CC(=O)O)NC(=O)[C@H](CO)NC(=O)[C@H](CC(=O)O)NC(=O)[C@H](CCCNC(=N)N)NC(=O)[C@H](CCCNC(=N)N)NC(=O)[C@H](CSSC[C@H](NC1=O)C(=O)N[C@@H](CCCNC(=N)N)C(=O)NCC(=O)N[C@@H](CC(N)=O)C(=O)NCC(=O)N[C@@H](Cc1ccc(O)cc1)C(=O)N4)NC(=O)[C@H](CCCCN)NC(=O)[C@H](CCCCN)NC(=O)[C@H](CC(C)C)NC(=O)[C@H]([C@@H](C)CC)NC(=O)[C@H](CCCNC(=N)N)NC(=O)[C@H](Cc1ccccc1)NC3=O)C(=O)N1CCC[C@H]1C(=O)NCC(=O)N[C@@H](C)C(=O)N2` (HELM PEPTIDE1{A.C.I.C.R.G.N.G.Y.C.G.S.G.S.G.G.Q.C.F.R.I.L.K.K.C.R.R.D.S.D.C.P.G}$PEPTIDE1,PEPTIDE1,2:R3-18:R3|PEPTIDE1,PEPTIDE1,4:R3-25:R3|PEPTIDE1,PEPTIDE1,10:R3-31:R3|PEPTIDE1,PEPTIDE1,1:R1-33:R2$$$V2.0), for which the Ratio Ki in the assay filed under Homo sapiens worked out at 1.4. The Ki in assay [1] was 140 nM.

As to `CC[C@H](C)[C@@H]1NC(=O)[C@@H]2CSSC[C@@H]3NC(=O)[C@H](CCC(N)=O)NC(=O)CNC(=O)CNC(=O)[C@H](CO)NC(=O)[C@H](CO)NC(=O)CNC(=O)[C@@H]4CSSC[C@H](NC(=O)[C@H](CC(=O)O)NC(=O)[C@H](CO)NC(=O)[C@H](CC(=O)O)NC(=O)[C@H](CCCNC(=N)N)NC(=O)[C@H](CCCNC(=N)N)NC(=O)[C@H](CSSC[C@H](NC1=O)C(=O)N[C@@H](CCCNC(=N)N)C(=O)NCC(=O)N[C@@H](CC(N)=O)C(=O)NCC(=O)N[C@@H](Cc1ccc(O)cc1)C(=O)N4)NC(=O)[C@H](CCCCN)NC(=O)[C@H](CCCCN)NC(=O)[C@H](CC(C)C)NC(=O)[C@H]([C@@H](C)CC)NC(=O)[C@H](CCCNC(=N)N)NC(=O)[C@H](Cc1ccccc1)NC3=O)C(=O)N1CCC[C@H]1C(=O)NCC(=O)N[C@@H](C)C(=O)N2` (HELM PEPTIDE1{A.C.I.C.R.G.N.G.Y.C.G.S.S.G.G.Q.C.F.R.I.L.K.K.C.R.R.D.S.D.C.P.G}$PEPTIDE1,PEPTIDE1,2:R3-17:R3|PEPTIDE1,PEPTIDE1,4:R3-24:R3|PEPTIDE1,PEPTIDE1,10:R3-30:R3|PEPTIDE1,PEPTIDE1,1:R1-32:R2$$$V2.0), the Ratio Ki in the assay listed under Homo sapiens turned out to be 1.5. In assay [1], this compound displayed an inhibitory constant (Ki) of 131 nM.

For the compound `CC[C@H](C)[C@@H]1NC(=O)[C@@H]2CSSC[C@H](NC(=O)[C@H](CCC(N)=O)NC(=O)CNC(=O)CN)C(=O)N[C@@H](Cc3ccccc3)C(=O)N[C@@H](CCCNC(=N)N)C(=O)N[C@@H]([C@@H](C)CC)C(=O)N[C@@H](CC(C)C)C(=O)N[C@@H](CCCCN)C(=O)N[C@@H](CCCCN)C(=O)N[C@H]3CSSC[C@H](NC1=O)C(=O)N[C@@H](CCCNC(=N)N)C(=O)NCC(=O)N[C@@H](CC(N)=O)C(=O)NCC(=O)N[C@@H](Cc1ccc(O)cc1)C(=O)N[C@H](C(=O)N[C@@H](C)C(=O)N[C@@H](CO)C(=O)O)CSSC[C@H](NC(=O)[C@H](CC(=O)O)NC(=O)[C@H](CO)NC(=O)[C@H](CC(=O)O)NC(=O)[C@H](CCCNC(=N)N)NC(=O)[C@H](CCCNC(=N)N)NC3=O)C(=O)N1CCC[C@H]1C(=O)NCC(=O)N[C@@H](C)C(=O)N2` (HELM PEPTIDE1{G.G.Q.C.F.R.I.L.K.K.C.R.R.D.S.D.C.P.G.A.C.I.C.R.G.N.G.Y.C.A.S}$PEPTIDE1,PEPTIDE1,4:R3-21:R3|PEPTIDE1,PEPTIDE1,11:R3-23:R3|PEPTIDE1,PEPTIDE1,17:R3-29:R3$$$V2.0), the Ratio Ki in the assay filed under Homo sapiens was -4.2. Further, the Ki in assay [1] is 106 nM.

In general, IC50 refers to the concentration that inhibits the measured activity by half. In assay [2], `CC[C@H](C)[C@@H]1NC(=O)[C@@H]2CSSC[C@H](NC(=O)[C@H](CCC(N)=O)NC(=O)CNC(=O)CN)C(=O)N[C@@H](Cc3ccccc3)C(=O)N[C@@H](CCCNC(=N)N)C(=O)N[C@@H]([C@@H](C)CC)C(=O)N[C@@H](CC(C)C)C(=O)N[C@@H](CCCCN)C(=O)N[C@@H](CCCCN)C(=O)N[C@H]3CSSC[C@H](NC1=O)C(=O)N[C@@H](CCCNC(=N)N)C(=O)NCC(=O)N[C@@H](CC(N)=O)C(=O)NCC(=O)N[C@@H](Cc1ccc(O)cc1)C(=O)N[C@H](C(=O)NCC(=O)N[C@@H](CO)C(=O)O)CSSC[C@H](NC(=O)[C@H](CC(=O)O)NC(=O)[C@H](CO)NC(=O)[C@H](CC(=O)O)NC(=O)[C@H](CCCNC(=N)N)NC(=O)[C@H](CCCNC(=N)N)NC3=O)C(=O)N1CCC[C@H]1C(=O)NCC(=O)N[C@@H](C)C(=O)N2` (HELM PEPTIDE1{G.G.Q.C.F.R.I.L.K.K.C.R.R.D.S.D.C.P.G.A.C.I.C.R.G.N.G.Y.C.G.S}$PEPTIDE1,PEPTIDE1,4:R3-21:R3|PEPTIDE1,PEPTIDE1,11:R3-23:R3|PEPTIDE1,PEPTIDE1,17:R3-29:R3$$$V2.0) gave an IC50 greater than 5000 nM. The Ki stood at 25 nM in assay [1], 157 nM in assay [3] and 283 nM on Plasminogen.
